Data as given in patent US20240226018A1, “METHOD FOR COATING PHARMACEUTICAL SUBSTRATES” (Applied Materials, Inc., priority 2012, published 2024).

Assay: Tableting study: compression forces and crushing strength of tablets (eccentric tableting machine, Scleuninger-E apparatus)
Format: physicochemical
Conditions: tablets of target weight 300 mg, flat-faced 9 mm punches, die wall lubricated with 5% (w/V) magnesium stearate in acetone; upper punch force differs per material (Table 1)
Procedure: The material obtained from Example 1 was tableted using an instrumented eccentric tableting machine (Korsch EK-0, Erweka Apparatebau, Heusenstamm, Germany) Flat-faced 9 mm punches were used and the die wall was lubricated using 5% (w/V) magnesium stearate in acetone before each compression. The target weights of tablets were 300 mg. Compression forces during the compression process were measured and the crushing strength of each tablet was measured using Scleuninger-E apparatus (Switzerland) (Table 1).

Crushing strength: No tablet, no measurable
SMILES: CC(=O)Nc1ccc(O)cc1 [Neat paracetamol, paracetamol]
